Test results taken from ChEMBL document CHEMBL1152560, “Substituted 2-arylbenzothiazoles as kinase inhibitors: hit-to-lead optimization” (Bioorg Med Chem, 2009).

Experiments:
[1] = molecular target: Death-associated protein kinase 1 (Homo sapiens) (UniProt P53355); test: Residual activity of DAPK1 at 1 uM by microplate scintillation counting
[2] = molecular target: SRSF protein kinase 3 (Homo sapiens) (UniProt Q9UPE1); test: Residual activity of STK23 at 1 uM by microplate scintillation counting
Sequence of SRSF protein kinase 3 (Homo sapiens) (Q9UPE1 whole entry): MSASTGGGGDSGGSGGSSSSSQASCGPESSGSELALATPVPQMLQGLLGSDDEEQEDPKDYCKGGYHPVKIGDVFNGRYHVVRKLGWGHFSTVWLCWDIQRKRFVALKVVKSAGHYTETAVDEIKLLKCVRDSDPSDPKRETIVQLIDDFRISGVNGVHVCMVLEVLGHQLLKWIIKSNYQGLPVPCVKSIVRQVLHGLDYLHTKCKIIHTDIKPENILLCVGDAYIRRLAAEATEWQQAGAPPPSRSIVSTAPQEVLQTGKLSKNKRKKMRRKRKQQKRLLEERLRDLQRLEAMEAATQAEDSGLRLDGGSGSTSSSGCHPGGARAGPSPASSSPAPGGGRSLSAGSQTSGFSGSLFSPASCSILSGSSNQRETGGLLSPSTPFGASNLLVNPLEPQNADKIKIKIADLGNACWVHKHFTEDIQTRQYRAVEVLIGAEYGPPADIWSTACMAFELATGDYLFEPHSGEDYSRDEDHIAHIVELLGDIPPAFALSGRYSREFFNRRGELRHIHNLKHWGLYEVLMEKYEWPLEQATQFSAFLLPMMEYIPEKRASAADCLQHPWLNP

[3] = molecular target: T1, Serine/threonine-protein kinase D2 (Homo sapiens) (UniProt Q9BZL6); test: Residual activity of PRKD2 at 10 uM by microplate scintillation counting
T1 sequence (whole entry): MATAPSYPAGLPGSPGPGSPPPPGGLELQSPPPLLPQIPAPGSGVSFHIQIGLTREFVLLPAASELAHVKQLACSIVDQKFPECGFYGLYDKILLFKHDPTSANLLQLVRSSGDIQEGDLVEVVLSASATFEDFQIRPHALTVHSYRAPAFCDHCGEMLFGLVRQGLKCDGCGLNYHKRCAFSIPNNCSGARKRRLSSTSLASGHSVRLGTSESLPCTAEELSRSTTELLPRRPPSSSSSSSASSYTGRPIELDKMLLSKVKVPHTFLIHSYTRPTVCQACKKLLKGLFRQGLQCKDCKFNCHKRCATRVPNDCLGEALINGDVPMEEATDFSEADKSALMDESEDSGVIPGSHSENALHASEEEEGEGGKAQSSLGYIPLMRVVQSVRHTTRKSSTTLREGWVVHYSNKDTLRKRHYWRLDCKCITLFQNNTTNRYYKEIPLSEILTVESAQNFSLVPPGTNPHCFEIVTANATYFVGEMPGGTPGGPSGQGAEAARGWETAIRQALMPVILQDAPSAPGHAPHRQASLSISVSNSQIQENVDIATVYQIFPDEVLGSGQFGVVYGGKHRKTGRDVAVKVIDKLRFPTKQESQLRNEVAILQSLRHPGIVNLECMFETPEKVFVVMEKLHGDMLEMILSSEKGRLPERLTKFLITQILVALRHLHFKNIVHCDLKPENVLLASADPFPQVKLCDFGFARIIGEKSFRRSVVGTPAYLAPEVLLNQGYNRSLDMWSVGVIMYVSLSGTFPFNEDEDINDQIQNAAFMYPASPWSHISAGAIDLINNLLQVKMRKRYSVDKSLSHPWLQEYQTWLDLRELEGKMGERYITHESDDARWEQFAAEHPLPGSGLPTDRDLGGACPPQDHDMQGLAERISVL

[4] = molecular target: T1, Serine/threonine-protein kinase D2 (Homo sapiens); test: Residual activity of PRKD2 at 0.1 uM by microplate scintillation counting
[5] = molecular target: Tyrosine-protein kinase Fer (Homo sapiens) (UniProt P16591); test: Residual activity of FER at 1 uM by microplate scintillation counting
Sequence of Tyrosine-protein kinase Fer (Homo sapiens) (P16591 whole entry, looked up): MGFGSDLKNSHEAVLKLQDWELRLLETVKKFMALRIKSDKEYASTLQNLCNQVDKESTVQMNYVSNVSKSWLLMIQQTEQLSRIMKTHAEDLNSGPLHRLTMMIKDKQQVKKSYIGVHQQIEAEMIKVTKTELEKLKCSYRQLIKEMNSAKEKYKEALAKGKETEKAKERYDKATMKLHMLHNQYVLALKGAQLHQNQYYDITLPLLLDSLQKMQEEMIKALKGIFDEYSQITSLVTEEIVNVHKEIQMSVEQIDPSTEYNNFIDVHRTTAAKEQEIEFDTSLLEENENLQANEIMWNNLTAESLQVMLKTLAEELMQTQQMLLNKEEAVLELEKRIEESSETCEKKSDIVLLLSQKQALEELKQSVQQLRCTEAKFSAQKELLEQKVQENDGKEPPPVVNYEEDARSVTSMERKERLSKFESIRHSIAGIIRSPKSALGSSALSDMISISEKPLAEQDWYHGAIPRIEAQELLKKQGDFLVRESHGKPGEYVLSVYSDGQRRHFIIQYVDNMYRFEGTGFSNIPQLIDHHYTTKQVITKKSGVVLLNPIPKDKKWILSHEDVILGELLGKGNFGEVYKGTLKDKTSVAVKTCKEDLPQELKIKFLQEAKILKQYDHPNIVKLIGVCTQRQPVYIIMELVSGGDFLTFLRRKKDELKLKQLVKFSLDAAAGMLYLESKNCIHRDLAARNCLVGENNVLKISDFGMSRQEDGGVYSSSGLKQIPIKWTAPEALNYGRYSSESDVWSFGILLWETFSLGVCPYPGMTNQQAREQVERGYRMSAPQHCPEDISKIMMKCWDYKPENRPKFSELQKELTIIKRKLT

[6] = molecular target: Mitogen-activated protein kinase 11 (Homo sapiens) (UniProt Q15759); test: Residual activity of p38beta at 1 uM by microplate scintillation counting
Sequence of Mitogen-activated protein kinase 11 (Homo sapiens) (Q15759 whole entry): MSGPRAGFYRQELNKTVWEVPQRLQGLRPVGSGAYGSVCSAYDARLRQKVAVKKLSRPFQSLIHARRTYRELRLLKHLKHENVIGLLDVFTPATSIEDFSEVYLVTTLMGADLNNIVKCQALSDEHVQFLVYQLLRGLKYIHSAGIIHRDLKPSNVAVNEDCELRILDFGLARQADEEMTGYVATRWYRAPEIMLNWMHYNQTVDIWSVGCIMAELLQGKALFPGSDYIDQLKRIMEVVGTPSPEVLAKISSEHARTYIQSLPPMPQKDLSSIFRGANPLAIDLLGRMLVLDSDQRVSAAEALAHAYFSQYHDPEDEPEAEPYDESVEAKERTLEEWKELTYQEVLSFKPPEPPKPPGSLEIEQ

[7] = molecular target: Serine/threonine-protein kinase pim-2 (Homo sapiens) (UniProt Q9P1W9); test: Residual activity of PIM2 at 10 uM by microplate scintillation counting
Sequence of Serine/threonine-protein kinase pim-2 (Homo sapiens) (Q9P1W9 whole entry, looked up): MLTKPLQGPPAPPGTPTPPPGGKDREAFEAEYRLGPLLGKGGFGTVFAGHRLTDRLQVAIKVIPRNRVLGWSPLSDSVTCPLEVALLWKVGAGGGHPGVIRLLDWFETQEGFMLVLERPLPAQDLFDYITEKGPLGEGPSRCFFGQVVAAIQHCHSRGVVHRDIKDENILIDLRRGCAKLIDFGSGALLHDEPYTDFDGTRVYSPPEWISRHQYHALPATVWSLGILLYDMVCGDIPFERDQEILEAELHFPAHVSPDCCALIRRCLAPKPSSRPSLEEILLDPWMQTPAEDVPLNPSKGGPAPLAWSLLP

[8] = molecular target: Receptor-interacting serine/threonine-protein kinase 2 (Homo sapiens) (UniProt O43353); test: Residual activity of RIPK2 at 10 uM by microplate scintillation counting
Sequence of Receptor-interacting serine/threonine-protein kinase 2 (Homo sapiens) (O43353 whole entry): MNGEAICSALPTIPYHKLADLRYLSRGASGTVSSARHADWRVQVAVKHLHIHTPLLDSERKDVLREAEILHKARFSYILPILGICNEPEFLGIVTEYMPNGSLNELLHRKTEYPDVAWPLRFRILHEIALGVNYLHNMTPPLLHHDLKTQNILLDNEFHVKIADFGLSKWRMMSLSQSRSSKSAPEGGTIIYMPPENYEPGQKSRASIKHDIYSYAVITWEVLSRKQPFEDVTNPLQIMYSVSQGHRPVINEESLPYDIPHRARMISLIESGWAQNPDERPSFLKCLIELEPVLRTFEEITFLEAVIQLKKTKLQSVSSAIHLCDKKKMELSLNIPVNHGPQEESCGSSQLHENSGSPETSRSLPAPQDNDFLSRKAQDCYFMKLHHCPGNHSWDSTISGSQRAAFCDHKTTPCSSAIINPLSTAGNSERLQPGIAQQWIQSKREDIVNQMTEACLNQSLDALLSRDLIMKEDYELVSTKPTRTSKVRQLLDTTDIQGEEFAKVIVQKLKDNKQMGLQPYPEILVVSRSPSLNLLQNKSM

[9] = molecular target: T2, Ephrin type-B receptor 1 (Homo sapiens) (UniProt P54762); test: Residual activity of EPHB1 at 0.1 uM by microplate scintillation counting
T2 sequence (whole entry): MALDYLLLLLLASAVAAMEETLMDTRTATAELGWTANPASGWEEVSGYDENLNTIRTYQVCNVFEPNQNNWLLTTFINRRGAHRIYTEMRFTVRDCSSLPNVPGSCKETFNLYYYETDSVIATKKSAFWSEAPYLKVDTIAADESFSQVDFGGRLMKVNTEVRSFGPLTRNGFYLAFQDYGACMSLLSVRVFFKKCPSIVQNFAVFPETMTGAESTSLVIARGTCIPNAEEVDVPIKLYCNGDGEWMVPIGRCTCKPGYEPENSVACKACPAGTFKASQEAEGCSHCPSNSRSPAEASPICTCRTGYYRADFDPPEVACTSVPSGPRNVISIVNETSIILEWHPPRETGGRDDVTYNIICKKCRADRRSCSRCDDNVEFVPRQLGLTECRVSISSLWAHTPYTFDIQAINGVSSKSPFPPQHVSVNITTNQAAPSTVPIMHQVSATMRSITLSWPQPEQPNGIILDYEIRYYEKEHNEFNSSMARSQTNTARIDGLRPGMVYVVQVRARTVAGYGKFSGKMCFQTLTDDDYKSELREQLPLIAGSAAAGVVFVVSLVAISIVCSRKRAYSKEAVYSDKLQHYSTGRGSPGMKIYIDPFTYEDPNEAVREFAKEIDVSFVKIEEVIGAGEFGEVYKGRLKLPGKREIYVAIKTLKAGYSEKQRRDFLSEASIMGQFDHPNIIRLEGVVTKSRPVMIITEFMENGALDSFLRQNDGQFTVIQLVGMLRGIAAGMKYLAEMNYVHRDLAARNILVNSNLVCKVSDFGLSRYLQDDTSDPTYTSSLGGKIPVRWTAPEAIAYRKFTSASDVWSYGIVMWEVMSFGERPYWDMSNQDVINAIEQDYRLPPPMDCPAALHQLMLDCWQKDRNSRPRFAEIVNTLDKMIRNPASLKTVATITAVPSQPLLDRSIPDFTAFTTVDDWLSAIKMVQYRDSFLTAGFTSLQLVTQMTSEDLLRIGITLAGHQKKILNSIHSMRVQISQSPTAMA

[10] = molecular target: T3, Beta-adrenergic receptor kinase 1 (Homo sapiens) (UniProt P25098); test: Residual activity of GRK2 at 1 uM by microplate scintillation counting
T3 sequence (whole entry): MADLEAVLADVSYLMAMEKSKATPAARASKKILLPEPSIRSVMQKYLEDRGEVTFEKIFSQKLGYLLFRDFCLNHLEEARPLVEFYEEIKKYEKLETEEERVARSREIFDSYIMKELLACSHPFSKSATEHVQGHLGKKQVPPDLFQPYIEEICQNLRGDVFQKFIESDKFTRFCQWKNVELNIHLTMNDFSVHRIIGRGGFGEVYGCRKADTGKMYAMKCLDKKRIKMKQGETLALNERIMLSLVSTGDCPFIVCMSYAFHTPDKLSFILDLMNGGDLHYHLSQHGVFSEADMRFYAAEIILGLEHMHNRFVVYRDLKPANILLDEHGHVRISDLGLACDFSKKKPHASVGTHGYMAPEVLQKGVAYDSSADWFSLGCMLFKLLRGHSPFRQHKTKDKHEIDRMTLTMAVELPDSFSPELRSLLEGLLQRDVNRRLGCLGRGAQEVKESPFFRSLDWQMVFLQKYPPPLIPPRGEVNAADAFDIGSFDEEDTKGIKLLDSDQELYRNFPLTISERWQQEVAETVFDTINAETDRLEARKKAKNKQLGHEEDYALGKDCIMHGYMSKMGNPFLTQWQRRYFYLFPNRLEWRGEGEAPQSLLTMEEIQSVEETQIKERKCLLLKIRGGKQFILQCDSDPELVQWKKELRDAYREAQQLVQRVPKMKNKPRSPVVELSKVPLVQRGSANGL

Sequence of Death-associated protein kinase 1 (Homo sapiens) (P53355 whole entry, looked up): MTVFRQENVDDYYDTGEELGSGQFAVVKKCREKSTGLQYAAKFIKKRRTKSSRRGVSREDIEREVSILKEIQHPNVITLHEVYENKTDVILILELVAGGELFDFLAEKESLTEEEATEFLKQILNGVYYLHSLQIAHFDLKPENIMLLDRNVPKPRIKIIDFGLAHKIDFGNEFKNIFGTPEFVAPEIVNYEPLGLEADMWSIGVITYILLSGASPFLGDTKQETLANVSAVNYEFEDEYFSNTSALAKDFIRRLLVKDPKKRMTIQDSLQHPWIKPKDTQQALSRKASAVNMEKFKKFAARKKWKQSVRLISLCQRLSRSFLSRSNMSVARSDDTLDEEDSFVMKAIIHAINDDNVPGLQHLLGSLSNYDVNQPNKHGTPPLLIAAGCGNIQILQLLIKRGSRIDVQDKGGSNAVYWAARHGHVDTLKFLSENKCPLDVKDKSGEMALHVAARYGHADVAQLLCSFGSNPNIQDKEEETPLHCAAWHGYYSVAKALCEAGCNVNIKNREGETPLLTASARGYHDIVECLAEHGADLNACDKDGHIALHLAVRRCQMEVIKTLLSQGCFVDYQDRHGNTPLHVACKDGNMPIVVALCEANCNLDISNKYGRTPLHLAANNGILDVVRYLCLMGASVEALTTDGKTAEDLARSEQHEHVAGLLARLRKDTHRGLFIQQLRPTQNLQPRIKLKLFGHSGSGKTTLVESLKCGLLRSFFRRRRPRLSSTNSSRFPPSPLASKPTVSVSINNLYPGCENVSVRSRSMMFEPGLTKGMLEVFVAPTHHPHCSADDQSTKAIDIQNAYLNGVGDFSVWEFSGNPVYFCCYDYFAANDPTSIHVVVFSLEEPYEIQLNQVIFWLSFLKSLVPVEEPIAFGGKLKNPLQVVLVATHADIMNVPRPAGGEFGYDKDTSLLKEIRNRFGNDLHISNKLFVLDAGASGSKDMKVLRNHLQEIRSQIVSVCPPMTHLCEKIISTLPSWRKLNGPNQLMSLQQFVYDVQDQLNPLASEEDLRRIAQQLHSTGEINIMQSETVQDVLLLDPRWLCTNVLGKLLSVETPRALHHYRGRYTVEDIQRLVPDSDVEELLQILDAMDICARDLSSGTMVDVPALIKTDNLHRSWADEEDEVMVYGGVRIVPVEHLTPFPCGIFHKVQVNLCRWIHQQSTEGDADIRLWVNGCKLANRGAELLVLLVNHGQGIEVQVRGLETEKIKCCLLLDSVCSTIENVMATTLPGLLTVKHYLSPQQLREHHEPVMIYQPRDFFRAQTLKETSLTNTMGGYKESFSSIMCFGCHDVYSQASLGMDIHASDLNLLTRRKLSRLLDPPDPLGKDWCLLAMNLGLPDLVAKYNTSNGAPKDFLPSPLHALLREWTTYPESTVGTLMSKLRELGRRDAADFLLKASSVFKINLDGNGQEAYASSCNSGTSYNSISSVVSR

Compound	residual activity [1]	residual activity [2]	residual activity [3]	residual activity [4]	residual activity [5]	residual activity [6]	residual activity [7]	residual activity [8]	residual activity [9]	residual activity [10]
COc1cc2c(Oc3ccc(-c4nc5ccccc5s4)cc3F)ncnc2cc1OCCCN1CCN(C)CC1	90%	87%	128%	95%	96%	129%	85%	1%	123%	85%
COc1cc2c(Oc3ccc(-c4nc5ccccc5s4)cc3)ncnc2cc1OCCCN1CCCC1	86%	83%	136%	89%	103%	125%	113%	4%	99%	97%
COc1cc2c(Oc3ccc(-c4nc5ccccc5s4)cc3)ncnc2cc1OCCCN1CCN(C)CC1	81%	95%	146%	82%	107%	126%	73%	2%	118%	105%
